Assay results from the supplement of paper PMC3937590.

Assays:
Experiment in all cases: -log10 GI50 (growth inhibition 50%) (-log10(M)); higher = more potent growth inhibition
T4 = system: T4
Summary of the method: (§1)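 Dose-response data came from breast cancer cell lines exposed to each compound for 72 hours at nine doses in 1:5 serial dilution, in triplicate, and read by luminescence relative to a time-zero plate. A Gompertz curve fitted by nonlinear least squares gave GI50, the molar concentration for the set level of growth inhibition, reported as its negative logarithm to base 10. Where a value equals the top dose, it carries a < qualifier.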

MCF7 = system: MCF7
Summary of the method: as §1

MDAMB468 = system: MDAMB468
Summary of the method: as §1

HCC2185 = system: HCC2185
Summary of the method: as §1

S1 = system: S1
Summary of the method: as §1

LY2 = system: LY2
Summary of the method: as §1

UACC893 = system: UACC893
Summary of the method: as §1

MDAMB436 = system: MDAMB436
Summary of the method: as §1

HBL100 = system: HBL100
Summary of the method: as §1

SKBR3 = system: SKBR3
Summary of the method: as §1

ZR7530 = system: ZR7530
Summary of the method: as §1

MCF10A = system: MCF10A
Summary of the method: as §1

BT474 = system: BT474
Summary of the method: as §1

MDAMB175VII = system: MDAMB175VII
Summary of the method: as §1

HCC70 = system: HCC70
Summary of the method: as §1

HCC202 = system: HCC202
Summary of the method: as §1

SUM102PT = system: SUM102PT
Summary of the method: as §1

BT20 = system: BT20
Summary of the method: as §1

Row | -log10 GI50 (MCF7) | -log10 GI50 (MDAMB468) | -log10 GI50 (HCC2185) | -log10 GI50 (MDAMB436) | -log10 GI50 (SKBR3) | -log10 GI50 (BT474) | -log10 GI50 (MDAMB175VII) | -log10 GI50 (HCC202) | -log10 GI50 (BT20) | Compound | -log10 GI50 (T4) | -log10 GI50 (S1) | -log10 GI50 (LY2) | -log10 GI50 (UACC893) | -log10 GI50 (HBL100) | -log10 GI50 (ZR7530) | -log10 GI50 (MCF10A) | -log10 GI50 (HCC70) | -log10 GI50 (SUM102PT)
1 | < 4.78 | 4.84 | < 4.78 | 4.81 | < 4.78 | < 4.78 | 7.88 | 6.28 | – | CC(=O)Nc1cccc(-n2c(=O)n(C3CC3)c(=O)c3c(Nc4ccc(I)cc4F)n(C)c(=O)c(C)c32)c1 | 9 | 8.31 | < 4.78 | 5.77 | < 4.78 | < 4.78 | 8.23 | 8.18 | –
2 | 5.74 | 7.61 | 7.41 | 7.92 | 7.34 | 5.46 | 6.76 | 7.76 | – | CC(C)Oc1ccc(C(=O)N[C@H](CNC(=O)CN(C)C)Cc2ccc(-c3cn4cccc([C@H](C)O)c4n3)cc2)cc1Cl | 7.2 | 6.37 | – | 7.7 | 7.33 | 7.68 | 7.29 | 7.68 | 5.18
3 | 3.46 | – | 3.39 | 3.43 | 3.51 | 4.24 | 3.21 | 4.75 | – | CCNCCCNC/C=C\CNCCCNCC | 4.76 | 5.46 | 2.9 | 3.63 | 2.94 | < 2.3 | 4.2 | 5.9 | 5.98
4 | 5.06 | 7.89 | 6.3 | 7.19 | 5.29 | 5.2 | 5.07 | 6.03 | – | CCn1cc(-c2ccnc3[nH]c(-c4cccc(CN(C)C)c4)cc23)c(-c2ccc(NC(=O)N(C)C)cc2)n1 | 6.63 | 6.36 | 5.03 | 5.06 | 7.15 | – | 6.12 | 6.58 | 5.52
5 | 6.5 | 8.41 | 8.29 | 7.86 | 6.92 | 5.07 | 5.21 | 8.99 | – | C[C@@H](Oc1cc(-n2cnc3ccc(CN4CCN(C)CC4)cc32)sc1C(N)=O)c1ccccc1C(F)(F)F | 7.88 | 7.95 | 5.8 | 8.15 | 8.7 | 5.21 | 7.37 | 7.78 | 5.38
6 | 5.56 | 6.03 | 6.9 | 6.09 | 6.82 | 6.8 | 6.33 | 7.31 | – | O=C1NC(=O)/C(=C/c2ccc3nccc(-c4ccncc4)c3c2)S1 | 7.31 | 7.04 | 5.87 | 7.24 | 5.42 | 6.82 | 6.57 | 6.75 | –
7 | 6.25 | 5.64 | 6.93 | 5.96 | 7.55 | 5.84 | 7.39 | 8.27 | – | C=CCNC1=C2C[C@@H](C)C[C@H](OC)[C@H](O)[C@@H](C)/C=C(\C)[C@H](OC(N)=O)[C@@H](OC)/C=C\C=C(/C)C(=O)NC(=CC1=O)C2=O [17-AAG] | – | 6.89 | 6.99 | 7.77 | 5.97 | – | 7.4 | 6.62 | –
8 | 4.05 | < 3.78 | 4.57 | 4.09 | 5.4 | 6.17 | 6.08 | 5.75 | – | COc1cc2ncnc(Nc3cccc(Cl)c3)c2cc1OC [AG1478] | – | 7.25 | < 3.78 | 6.39 | < 3.78 | – | 6.65 | 4.21 | –
9 | 4.64 | 4.49 | 5.5 | 5.18 | 5.49 | 4.69 | 4.17 | 4.32 | – | CCc1c2c(nc3ccc(OC(=O)N4CCC(N5CCCCC5)CC4)cc13)-c1cc3c(c(=O)n1C2)COC(=O)[C@]3(O)CC [CPT-11] | 5.23 | < 4.13 | 4.88 | 4.22 | 5.5 | < 4.13 | 5.7 | 4.97 | –
10 | 3.64 | 4.32 | 4.88 | 4.29 | 5 | 3.97 | 4.44 | 4.44 | – | O=C(O)C1(C(=O)O)CCC1.[NH2-].[NH2-].[Pt+2] [Carboplatin] | 4.08 | 4.48 | 4.34 | 3.04 | 4.15 | 4.55 | 4.2 | 4.82 | –
11 | 7.91 | 8.64 | 8.52 | 8.07 | 8 | 8.2 | 7.8 | 8.63 | – | CC(=O)O[C@@]12CO[C@@H]1C[C@H](O)[C@@]1(C)C(=O)[C@H](O)C3=C(C)[C@@H](OC(=O)[C@H](O)[C@@H](NC(=O)OC(C)(C)C)c4ccccc4)C[C@@](O)([C@@H](OC(=O)c4ccccc4)[C@H]21)C3(C)C [Docetaxel] | 8.77 | 8.33 | 8.2 | 7.77 | 8.75 | 8.4 | 8.63 | 8.49 | –
12 | 6.11 | 6.13 | 7.29 | 6.29 | 6.9 | 6.51 | 6.48 | 6.61 | – | COc1cccc2c1C(=O)c1c(O)c3c(c(O)c1C2=O)C[C@@](O)(C(=O)CO)C[C@@H]3O[C@H]1C[C@H](N)[C@H](O)[C@H](C)O1 [Doxorubicin] | 6.9 | 6.09 | 6.71 | 6.14 | 7.37 | 6.96 | 6.79 | 5.36 | 6.61
13 | 6.45 | 6.15 | 6.91 | 5.92 | – | 5.17 | 7.05 | 6.26 | – | COc1cccc2c1C(=O)c1c(O)c3c(c(O)c1C2=O)C[C@@](O)(C(=O)CO)C[C@@H]3O[C@H]1C[C@H](N)[C@@H](O)[C@H](C)O1 [Epirubicin] | – | 6.42 | 6.86 | 6.11 | 6.88 | – | 6.71 | 6.35 | –
14 | 4.37 | 3.62 | 3.42 | 2.97 | 4.48 | 3.75 | 3.96 | 4.77 | – | O=c1[nH]cc(F)c(=O)[nH]1 [Fluorouracil] | – | 3.9 | 4.43 | 3.45 | 4.15 | – | 4.95 | 3.99 | –
15 | < 4.48 | 4.72 | 4.53 | < 4.48 | 5.56 | 6.14 | 6.55 | 6.45 | – | COc1cc2ncnc(Nc3ccc(F)c(Cl)c3)c2cc1OCCCN1CCOCC1 [Gefitinib] | – | 6.57 | 4.62 | 5.94 | 4.94 | – | 6.17 | 5.05 | 5.73
16 | 4.77 | 7.01 | 7.61 | 7.49 | 7.97 | 4.88 | 8.12 | 4.82 | – | Nc1ccn([C@@H]2O[C@H](CO)[C@@H](O)C2(F)F)c(=O)n1 [Gemcitabine] | – | 7.04 | 7.62 | 3.54 | 7.64 | – | 7.7 | 4.58 | –
17 | 7.34 | – | < 3.48 | – | 6.28 | < 3.48 | < 3.48 | 7.69 | < 3.48 | CN(Cc1cnc2nc(N)nc(N)c2n1)c1ccc(C(=O)N[C@@H](CCC(=O)O)C(=O)O)cc1 [Methotrexate] | – | – | 7.47 | – | < 3.48 | – | 7.39 | < 3.48 | –
18 | 5.25 | – | 4.81 | – | 4.33 | 4.8 | 5.23 | 5.02 | 4.41 | COc1ccc(C2=N[C@@H](c3ccc(Cl)cc3)[C@@H](c3ccc(Cl)cc3)N2C(=O)N2CCNC(=O)C2)c(OC(C)C)c1 [Nutlin 3a] | – | – | 5.29 | – | 4.32 | – | 5.21 | 4.73 | –
19 | 5.31 | – | 5.54 | 4.46 | 5.7 | 4.73 | 5.44 | 5.27 | – | O=C(O)C(=O)O.[NH-][C@@H]1CCCC[C@H]1[NH-].[Pt+2] [Oxaliplatin] | 5.21 | 4.68 | 5.45 | 3.83 | 5.65 | < 3.2 | 5.41 | 5.38 | –
20 | 7.79 | 8.06 | 8.22 | 7.65 | 7.94 | 7.99 | 7.74 | 8.1 | – | CC(=O)O[C@H]1C(=O)[C@@]2(C)[C@H]([C@H](OC(=O)c3ccccc3)[C@]3(O)C[C@H](OC(=O)[C@H](O)[C@@H](NC(=O)c4ccccc4)c4ccccc4)C(C)=C1C3(C)C)[C@]1(OC(C)=O)CO[C@@H]1C[C@@H]2O [Paclitaxel] | 8.04 | 7.84 | 7.97 | 7.93 | 8.35 | 7.66 | 8.03 | 8.03 | –
21 | 6.84 | 4.75 | 8.79 | 3.85 | 8.09 | 7.62 | 8.43 | 8.24 | 7.17 | CO[C@H]1C[C@@H]2CC[C@@H](C)[C@@](O)(O2)C(=O)C(=O)N2CCCC[C@H]2C(=O)O[C@H]([C@H](C)C[C@@H]2CC[C@@H](O)[C@H](OC)C2)CC(=O)[C@H](C)/C=C(\C)[C@@H](O)[C@@H](OC)C(=O)[C@H](C)C[C@H](C)/C=C/C=C/C=C/1C [Rapamycin] | – | – | – | < 3.78 | 4.24 | – | 6.34 | 6.92 | –
22 | 5.23 | – | 4.7 | – | 5.17 | 4.78 | 5.18 | 5.03 | 4.79 | CCN(CC)CCNC(=O)c1c(C)[nH]c(/C=C2\C(=O)Nc3ccc(F)cc32)c1C [Sunitinib malate] | – | – | 5.14 | – | 5.34 | – | 5.27 | 5.6 | –
23 | < 3.78 | – | 4.21 | 4.51 | 4.37 | 5.62 | < 3.78 | 4.55 | – | CC/C(=C(\c1ccccc1)c1ccc(OCCN(C)C)cc1)c1ccccc1 [Tamoxifen] | – | 5.84 | 4.25 | 4.72 | 4.32 | – | 4.16 | < 3.78 | –
24 | 5.89 | 7.66 | 7.39 | 7.65 | 7.95 | 5.6 | 5.95 | 6.08 | – | CC[C@@]1(O)C(=O)OCc2c1cc1n(c2=O)Cc2cc3c(CN(C)C)c(O)ccc3nc2-1 [Topotecan] | – | 4.63 | 6.59 | 6.59 | 7.87 | – | 7.23 | 6.3 | 6.12
25 | 7.85 | 8.01 | 5.23 | 7.57 | 7.83 | 7.32 | 7.41 | 7.89 | – | CCC1=C[C@@H]2CN(C1)Cc1c([nH]c3ccccc13)[C@@](C(=O)OC)(c1cc3c(cc1OC)N(C)[C@H]1[C@@](O)(C(=O)OC)[C@H](OC(C)=O)[C@]4(CC)C=CCN5CC[C@]31[C@@H]54)C2 [Vinorelbine] | – | 8.34 | 7.88 | 7.96 | 8.02 | – | 7.43 | 7.66 | –

Row | Compound | -log10 GI50 (MCF7) | -log10 GI50 (MDAMB468) | -log10 GI50 (HCC2185) | -log10 GI50 (MDAMB436) | -log10 GI50 (SKBR3) | -log10 GI50 (BT474) | -log10 GI50 (MDAMB175VII) | -log10 GI50 (HCC202) | -log10 GI50 (BT20) | -log10 GI50 (T4) | -log10 GI50 (S1) | -log10 GI50 (LY2) | -log10 GI50 (UACC893) | -log10 GI50 (HBL100) | -log10 GI50 (ZR7530) | -log10 GI50 (MCF10A) | -log10 GI50 (HCC70) | -log10 GI50 (SUM102PT)
26 | N.N.[Cl][Pt][Cl] [Cisplatin] | 4.66 | 5.27 | 5.71 | 5 | 4.77 | 4.42 | 5.37 | 6.06 | – | 5.02 | 5.45 | 5.11 | 3.76 | 5.05 | 5.58 | 5.1 | 5.8 | < 3.3
